Data from article PMC8770593 (Nature Communications, 2022).
Numbering of substitutions follows the chain as printed. Values joined by “and” are separate entries in the source; they are usually repeats but may differ in a detail not shown here. Identical values can stand only once. Like-named read-outs stand apart in the source and are kept apart here.

Experiments:
[1] = molecular target: T1, α1BAR-α2C(L^45.52) chimera (V197^45.52→L) (Homo sapiens, UniProt P35368, V197L); test: HTRF ligand-binding assay on whole transfected HEK293T/17 cells (QAPB saturation; competition with QAPB tracer)
T1 sequence (P35368 35-520 V197L): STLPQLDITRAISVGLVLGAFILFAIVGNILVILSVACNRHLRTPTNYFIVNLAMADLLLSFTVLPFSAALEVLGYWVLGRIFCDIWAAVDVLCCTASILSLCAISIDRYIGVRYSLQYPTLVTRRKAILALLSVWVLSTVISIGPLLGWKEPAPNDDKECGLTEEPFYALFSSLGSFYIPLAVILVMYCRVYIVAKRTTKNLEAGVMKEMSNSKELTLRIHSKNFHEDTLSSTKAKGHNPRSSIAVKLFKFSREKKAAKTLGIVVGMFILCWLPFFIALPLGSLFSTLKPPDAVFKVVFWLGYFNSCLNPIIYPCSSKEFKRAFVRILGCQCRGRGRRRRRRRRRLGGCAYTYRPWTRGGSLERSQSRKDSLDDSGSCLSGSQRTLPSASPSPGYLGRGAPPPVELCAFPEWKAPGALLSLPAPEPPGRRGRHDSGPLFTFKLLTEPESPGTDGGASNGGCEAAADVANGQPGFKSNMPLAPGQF

[2] = molecular target: T2, α1BAR-α2C(YLLY) chimera (Homo sapiens, UniProt P35368, A122L/L314Y/V197L/W121Y); test: as above
T2 sequence (P35368 35-520 W121Y/A122L/V197L/L314Y): T1 sequence (P35368 35-520 V197L) with W87Y, A88L, L280Y

[3] = molecular target: α1BAR-α2C(YLLY;N^2.64) chimera (Homo sapiens, UniProt P35368, A122L/L105N/L314Y/V197L/W121Y); test: as above
α1BAR-α2C(YLLY;N^2.64) chimera, sequence (P35368 35-520 L105N/W121Y/A122L/V197L/L314Y): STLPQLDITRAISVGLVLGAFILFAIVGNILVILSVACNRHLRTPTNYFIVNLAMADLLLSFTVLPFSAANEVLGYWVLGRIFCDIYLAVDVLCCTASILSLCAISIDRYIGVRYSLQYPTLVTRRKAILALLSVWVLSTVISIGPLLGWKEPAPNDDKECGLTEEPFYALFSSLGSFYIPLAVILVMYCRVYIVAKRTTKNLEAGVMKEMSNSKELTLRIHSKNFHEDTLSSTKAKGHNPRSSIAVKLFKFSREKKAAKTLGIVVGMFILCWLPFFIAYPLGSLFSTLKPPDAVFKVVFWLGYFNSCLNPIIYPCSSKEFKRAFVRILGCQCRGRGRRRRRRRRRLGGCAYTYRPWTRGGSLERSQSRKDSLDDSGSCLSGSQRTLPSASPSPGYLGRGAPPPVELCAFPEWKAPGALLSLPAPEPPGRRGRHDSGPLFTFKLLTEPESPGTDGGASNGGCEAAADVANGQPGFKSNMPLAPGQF

[4] = tested on: α2ARs over α1ARs; settings: reported; cited from earlier work
[5] = molecular target: T3, wild-type α1BAR (Homo sapiens, UniProt P35368); test: HTRF ligand-binding assay on whole transfected HEK293T/17 cells (QAPB saturation; competition with QAPB tracer)
T3 sequence (P35368 35-520 limits assumed): T1 sequence (P35368 35-520 V197L) with L163V

[6] = tested on: α2CAR L128^3.29→A; parameters: method as in PMID 31801061; settings: L128^3.29→A in α2CAR vs wild type; cited from earlier work
[7] = molecular target: T4, wild-type α2CAR (Homo sapiens, UniProt P18825); test: HTRF ligand-binding assay on whole transfected HEK293T/17 cells (QAPB saturation; competition with QAPB tracer)
T4 sequence (P18825 37-462 limits assumed): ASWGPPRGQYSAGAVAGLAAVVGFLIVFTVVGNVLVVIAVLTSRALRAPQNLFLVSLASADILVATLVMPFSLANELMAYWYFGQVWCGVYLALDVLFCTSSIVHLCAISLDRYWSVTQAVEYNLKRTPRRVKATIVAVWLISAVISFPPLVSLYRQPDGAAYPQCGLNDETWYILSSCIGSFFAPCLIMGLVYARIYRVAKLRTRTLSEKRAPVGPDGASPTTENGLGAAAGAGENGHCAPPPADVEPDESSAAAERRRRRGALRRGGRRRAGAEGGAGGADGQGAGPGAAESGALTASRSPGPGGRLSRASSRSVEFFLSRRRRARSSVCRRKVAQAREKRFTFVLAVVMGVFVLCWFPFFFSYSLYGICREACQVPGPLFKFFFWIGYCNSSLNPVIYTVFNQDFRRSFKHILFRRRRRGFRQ

[8] = molecular target: α1BAR-α2C(YLLY;ECL2) chimera (Homo sapiens, UniProt P35368, A122L/DEL188-193/E186Y/E194Q/E199D/F202W/G179P/I178F/INS181VSLYRQP/K185A/L182D/L314Y/P201T/T198N/V197L/W121Y/W184A); test: as above; settings: competition with 50 nM QAPB tracer, whole cells, mean; read-out: pKi (competition binding) (converted)
α1BAR-α2C(YLLY;ECL2) chimera, sequence (P35368 with tags, fused parts or gaps with the stated changes): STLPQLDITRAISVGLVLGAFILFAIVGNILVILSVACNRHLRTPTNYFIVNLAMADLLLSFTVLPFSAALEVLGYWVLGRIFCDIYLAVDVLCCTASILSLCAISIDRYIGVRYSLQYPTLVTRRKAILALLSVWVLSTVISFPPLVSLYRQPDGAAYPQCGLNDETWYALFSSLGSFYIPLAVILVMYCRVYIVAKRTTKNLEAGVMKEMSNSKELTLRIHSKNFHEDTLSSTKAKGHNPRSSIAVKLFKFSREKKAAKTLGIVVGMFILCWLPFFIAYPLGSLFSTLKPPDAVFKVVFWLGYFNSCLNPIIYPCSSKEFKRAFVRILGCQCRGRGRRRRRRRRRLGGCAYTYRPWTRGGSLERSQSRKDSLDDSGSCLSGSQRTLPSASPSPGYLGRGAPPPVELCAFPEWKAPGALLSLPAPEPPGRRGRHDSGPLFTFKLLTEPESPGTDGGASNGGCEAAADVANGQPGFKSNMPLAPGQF

SMILES: CCS(=O)(=O)N1CCC[C@@H]2CN3CCc4cc(OC)ccc4[C@@H]3C[C@@H]21 [RS79948]
- higher affinity compared to wild-type α1BAR ([1]; V197^45.52→L vs wild-type α1BAR): 2 fold
- Ki ([1]; competition with 2 nM QAPB tracer, whole cells, mean, read-out: pKi (competition binding) (converted)): 589 nM
- Ki ([1]; construct α1BAR-α2C(L45.52), competition with RS79948 against QAPB tracer, one value per experiment date, read-out: Calculated pKi values (converted)): 594 nM and 645 nM and 549 nM
- Ki ([2]; competition with 50 nM QAPB tracer, whole cells, mean, read-out: pKi (competition binding) (converted)): 1.66 nM
- Ki ([2]; construct α1BAR-α2C(YLLY), competition with RS79948 against QAPB tracer, one value per experiment date, read-out: Calculated pKi values (converted)): 0.869 nM and 1.72 nM and 1.67 nM and 3.15 nM
- affinity improved compared to wild-type α1BAR ([2]; α1BAR-α2C(YLLY) vs wild-type α1BAR): almost three orders of magnitude
- Ki [3]: 1.38 nM
- selectivity for α2ARs over α1ARs [4]: ~ 10,000 fold
- Ki ([5]; Calculated pKi values, construct α1BAR, competition with RS79948 against QAPB tracer, one value per experiment date): 1270 nM and 1110 nM and 1070 nM and 1900 nM and 1250 nM and 1510 nM and 981 nM
- Ki ([5]; pKi (competition binding), competition with 2 nM QAPB tracer, whole cells, mean): 1260 nM
- decrease of the ability to antagonize agonist-induced signaling [6]: 50 fold
- Ki ([7]; Calculated pKi values, construct α2CAR, competition with RS79948 against QAPB tracer, one value per experiment date): 0.124 nM and 0.311 nM and 0.324 nM and 0.183 nM and 0.189 nM
- Ki ([7]; pKi (competition binding), competition with 50 nM QAPB tracer, whole cells, mean): 0.214 nM
- Ki [8]: 9.55 nM
